Data: patent US6784153B1, “Methods of homing molecules to lung using membrane dipeptidase” (The Burnham Institute, priority 1998, dated 2004)
“Also recorded” adds a separate entry of the source.

Columns and labels:
liver = assay: in vivo panning of X7 library, liver; parameters: species or system mice
Procedure: (§1) Following various in vivo panning screens, hundreds of thousands to millions of phage expressing homing peptides were recovered from the respective organ or tissue. Generally, the phage collected from a round of in vivo panning were plated on agar, about 250 to 300 clones were selected, grown in 5 ml cultures, then pooled and readministered for a subsequent round of in vivo panning (“regular method”). However, in some experiments, 1000 clones were selected, grown in 2 ml cultures, then pooled and administered for a subsequent round of screening; or the entire agar plate was scraped and all of the phage were cultured together and administered for a subsequent round of screening. The peptide inserts of various isolated phage were determined such that, of the millions of phage that homed, only a small number of sequences were identified.
Also provided are liver homing peptides. Such peptides were identified by injection of an X7 (SEQ ID NO: 29) library into mice. The peptides were isolated by the regular method (see Example II, Table 1, and Table 11, below).
(§2) Organ samples were washed 3 times with ice cold DMEM-PI containing 1% bovine serum albumin (BSA), then directly incubated with 1 ml K91-kan bacteria for 1 hr. Ten ml NZY medium containing 0.2 μg/ml tetracycline (NZY/tet) was added to the bacterial culture, the mixture was incubated in a 37° C. shaker for 1 hr, then 200 μl aliquots were plated in agar plates containing 40 μg/ml tetracycline (tet/agar).
Approximately 250 to 300 individual bacterial colonies containing phage recovered from the various organs or tissues were grown for 16 hr in 5 ml NZY/tet. In some experiments, approximately 1000 individual bacteria containing phage were picked and the phage were amplified in 2 ml of NZY/tet or the entire plate containing phage was scraped, pooled and grown in bulk and processed for injection. […] Phage DNA was purified from individual bacterial colonies obtained and the DNA sequences encoding the peptides expressed by selected phage were determined (see Koivunen et al., supra, 1994b).

retina = assay: in vivo homing of phage displaying peptides to retina, coinjected with control phage fdAMPLAY88; parameters: species or system rats; conditions: for enrichment in retina: injected individually with control fdAMPLAY88 phage; for enrichment in retina compared to control fdAMPLAY88 phage: rat, in vivo
Procedure: For in vivo panning of retina, two month old female Simonson Albino rats were used to provide larger tissue samples than mice. The rats were anesthetized with phenobarbital (50 mg/kg body weight), and, while under deep anesthesia, the abdominal cavity of the rats was opened and 10^10 TU of a phage library was injected into the left ventricle of the heart through the diaphragm. After 2-5 minutes of phage circulation, the eyes were removed, then washed once in 70% EtOH and once in PBS. The anterior chamber, with cornea and lens, was removed and the retina was peeled from the remaining posterior chamber. The tissue was weighed, homogenized with a syringe bulb in 1 ml of ice cold DMEM containing protease inhibitors (1 mM PMSF, 20 μg/ml aprotinin and 1 μg/ml of leupeptin; all from SIGMA; St. Louis Mo.). The tissue was washed 3 times with 1 ml of DMEM and the phage were rescued as described below.
(§3) Approximately 250 to 300 individual bacterial colonies containing phage recovered from the various organs or tissues were grown for 16 hr in 5 ml NZY/tet. In some experiments, approximately 1000 individual bacteria containing phage were picked and the phage were amplified in 2 ml of NZY/tet or the entire plate containing phage was scraped, pooled and grown in bulk and processed for injection. Where phage were cultured separately, the cultures were pooled and the phage were injected into mice or rats as described above for a second round of in vivo panning. In some experiments, a third or fourth round of panning was performed. Phage DNA was purified from individual bacterial colonies obtained and the DNA sequences encoding the peptides expressed by selected phage were determined (see Koivunen et al., supra, 1994b).
Rats injected with a cyclic CX7C (SEQ ID NO: 24) phage display library were subjected to in vivo panning and, after three rounds, the peptide sequences CSCFRDVCC (SEQ ID NO: 5) and CRDVVSVIC (SEQ ID NO: 6) were identified in retina. Because of small tissue sample size, the phage isolated could not be accurately quantitated. Thus, the selectivity of phage displaying the peptides was determined by individually amplifying the phage displaying the sequence and administering the phage to rats with a control phage fdAMPLAY88. This fd-ampicillin phage is similar to fd-tetracycline (fuse 5-based) in that it has the same infectivity.
Rats were injected with an equal amount of the CSCFRDVCC (SEQ ID NO: 5) or CRDVVSVIC (SEQ ID NO: 6) and the fdAMPLAY88 phage. Following administration, homing to retina was evaluated by comparing the number of TU of the selected phage on tetracycline plates and fdAMPLAY88 on ampicillin plates recovered from retina.

adrenal gland = assay: in vivo panning of X7 library, adrenal gland; parameters: species or system mice
Procedure: as §1
The invention also provides adrenal gland homing peptides such as LMLPRAD (SEQ ID NO: 27) and LPRYLLS (SEQ ID NO: 28), which share a LPR motif (see Table 11), or the peptides R(Y/F)LLAGG (SEQ ID NO: 404) and RYPLAGG (SEQ ID NO: 389), which share the motif LAGG (SEQ ID NO: 430; see Table 10). The exemplified adrenal gland homing peptides were identified by injection of an X7 (SEQ ID NO: 29) library into mice. The peptides were isolated by the regular method.
as §2
Approximately 250 to 300 individual bacterial colonies containing phage recovered from the various organs or tissues were grown for 16 hr in 5 ml NZY/tet. […] Phage DNA was purified from individual bacterial colonies obtained and the DNA sequences encoding the peptides expressed by selected phage were determined (see Koivunen et al., supra, 1994b).

lung = assay: in vivo homing of phage displaying peptides to lung; parameters: species or system mice
Procedure: For lung and pancreas, a mixture of phage libraries containing 10^10 TU was diluted in 200 μl DMEM and injected into the tail vein of anesthetized BALB/c mice (2 month old; Harlan Sprague Dawley; San Diego Calif.); AVERTIN (0.017 ml/g) was used as anesthetic (Pasqualini and Ruoslahti, supra, 1996). After 1-4 minutes, mice were snap frozen in liquid nitrogen or, after about 5 minutes of phage circulation, the mice were perfused through the heart with 5-10 ml of DMEM (SIGMA; St. Louis Mo.). To recover the phage, the organs from the perfused mice or partially thawed organs from snap frozen mice were collected and weighed, then were homogenized in 1 ml DMEM-PI (DMEM containing protease inhibitors (PI); phenylmethyl sulfonyl fluoride (PMSF; 1 mM), aprotinin (20 μg/ml), leupeptin (1 μg/ml)).
as §2, §3
After two or three rounds of in vivo panning of mice injected with a cyclic CX3CX3CX3C (SEQ ID NO: 25) or a cyclic CX6C (SEQ ID NO: 26) phage display library, four peptides that homed to lung were identified.
To determine the specificity of lung homing of the individual peptides identified, phage displaying the peptides were amplified individually, diluted to the same input titer and administered to mice. Following administration, control kidney and brain organ was removed and the number of TU of phage in lung, kidney and brain was determined. The results shown in FIG. 2 reveal that 10× and 35× more phage having the peptide sequence CGFECVRQCPERC (SEQ ID NO: 1; GFE-1) bound to lung than to kidney and brain, respectively. […] The lung homing peptides CGFECVRQCPERC (SEQ ID NO: 1; GFE-1), CGFELETC (SEQ ID NO: 2; GFE-2), CTLRDRNC (SEQ ID NO: 15) and CIGEVEVC (SEQ ID NO: 16) are enriched in lung at 35×, 9×, 6× and 5×, respectively, over unselected phage (see FIG. 2).

murine MDP = target: T1, murine MDP (Mus musculus, UniProt P31428); assay: phage binding to COS-1 cells transfected with MDP; conditions: 5×10^6 COS-1 cells, 10^10 TU phage
T1 construct: The amplified 1.3 kb murine MDP cDNA was digested with KpnI and XbaI, and inserted into the same sites of the pcDNA3 expression vector; expressed in transfected cells; host or cells: COS-1 cells, pcDNA3 expression vector
T1 sequence (P31428 17-384): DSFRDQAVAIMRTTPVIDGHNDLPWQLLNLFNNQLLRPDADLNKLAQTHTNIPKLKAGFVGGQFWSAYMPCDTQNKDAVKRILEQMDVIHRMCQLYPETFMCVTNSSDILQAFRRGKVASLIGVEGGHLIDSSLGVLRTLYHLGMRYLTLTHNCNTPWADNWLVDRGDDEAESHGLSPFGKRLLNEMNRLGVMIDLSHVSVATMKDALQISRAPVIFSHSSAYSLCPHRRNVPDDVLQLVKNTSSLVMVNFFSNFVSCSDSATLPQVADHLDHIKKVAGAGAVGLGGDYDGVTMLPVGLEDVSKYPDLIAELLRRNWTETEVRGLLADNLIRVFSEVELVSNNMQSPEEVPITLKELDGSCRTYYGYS
Procedure: The COS-1 cell line, which is known to have low or no detectable level of MDP activity, has been used extensively to study MDP structure and function (Keynan et al., supra, 1996; Keynan et al., Biochem, J. 326:47-51 (1997)). COS-1 cells were trasfected with murine MDP and used to assay binding to SEQ ID NOS: 1 and 2 as described below.
For transfection into COS-1 cells, a murine MDP expression vector was prepared as follows. Total mouse lung RNA was isolated using Qiagen RNA purification columns (Qiagen; Santa Clarita, Calif.) and used as a template for first strand cDNA synthesis with reverse transcriptase and a mixture of random hexamers and poly-dT oligonucleotides (GIBCO/BRL; Grand Island, N.Y.). Mouse MDP cDNA (Pasqualini et al., J. Cell Biol. 130:1189-1196 (1995)) was amplified from the cDNA pool by PCR using the oligonucleotide pair: […] (SEQ ID NO: 446), which contains a KpnI adaptor, and […] (SEQ ID NO: 447), which contains an XbaI adaptor, using Taq polymerase from GIBCO/BRL. The amplified 1.3 kb murine MDP cDNA was digested with KpnI and XbaI, and inserted into the same sites of the pcDNA3 expression vector (Invitrogen; Carlsbad, Calif.) using DNA restriction enzymes and T4 DNA ligase from New England Biolabs (Beverly, Mass.). Successful cloning of the murine MDP cDNA was confirmed by DNA sequencing. Transfection of the COS-1 cells was performed with the Superfect Reagent from Qiagen as recommended by the manufacturer.
Phage binding to COS-1 cells transfected with MDP was determined as follows. Briefly, 10^7 COS-1 cells were transfected with 10 μg of either the MDP expression vector or the vector alone. After 48 hours, cells were scraped gently from the dish, washed once, and subjected to the phage binding assay or membrane dipeptidase activity assay described above. For the phage binding assay, 5×10^6 cells and 10^10 transducing units (TU) of phage input were used. For measurement of membrane dipeptidase activity, 10^6 cells were lysed in 100 μl of PBS/octylglycoside without protease inhibitors. A 10 μl aliquot of the extract was used to measure MDP activity.

[1] = individually amplified phage, FIG. 2

## SRRFVGG [peptide from phage recovered from liver]
liver
  % OF MOTIF AMONG ALL CLONES: 6%

## CSCFRDVCC [retina homing peptide]
retina
  enrichment in retina: 3 fold
  enrichment in retina compared to control fdAMPLAY88 phage: 3 ×

## WRQNMPL [peptide from phage recovered from liver]
liver
  % OF MOTIF AMONG ALL CLONES: 6%

## LMLPRAD [peptide from phage recovered from adrenal gland]
Adrenal gland; ADRENAL GLAND
  % OF MOTIF AMONG ALL CLONES: 11%
Adrenal gland; ADRENAL GLAND section, adrenal gland as compared to brain
  adrenal gland/brain homing ratio: 50
Adrenal gland; mouse, in vivo
  enrichment in adrenal gland as compared to brain: 50 fold

## CGFELETC [lung homing peptide]
lung; LUNG
  % OF MOTIF AMONG ALL CLONES: 5%
lung; LUNG section
  LUNG/BRAIN RATIO: 9
lung; control organs
  homing of lung homing phage to control kidney or brain: few phage detected in kidney or brain; also recorded: no selective homing to kidney or brain was detected
lung; [1]
  enriched in lung over unselected phage: 9 ×
  phage bound to lung than to brain: 20 ×
  phage bound to lung than to kidney: 12 ×
lung; mouse, in vivo
  enrichment in lung as compared to unselected phage: 9 fold
Murine MDP
  phage bound to MDP transfected cells than to mock transfected cells: also bound MDP transfected cells

## CRDVVSVIC [retina homing peptide]
retina
  enrichment in retina: 2 fold
  enrichment in retina compared to control fdAMPLAY88 phage: 2 ×

## VKSVCRT [peptide from phage recovered from liver]
liver
  % OF MOTIF AMONG ALL CLONES: 11%
